From patent US20260001928A1 (CORTERIA PHARMACEUTICALS, priority 2022, published 2026)
*1 amine or outer side, *2 acyl side, *3 side chain or, on linkers, in order; H or OH if unused. Where a SMILES comes first, the peptide text is derived from it. Side-chain parts run from the residue outwards. [ ]: non-standard residue; d: D form. The star is where a group is joined. C20 diacid = O=C(O)CCCCCCCCCCCCCCCCCCC(=O)*; C18 diacid = O=C(O)CCCCCCCCCCCCCCCCC(=O)*; C16 diacid = O=C(O)CCCCCCCCCCCCCCC(=O)*; γGlu = O=C(O)[C@H](CCC(=O)[*:2])N[*:1]; NMeI = CC[C@H](C)[C@H](NC)C(=O)O; αMeL = CC(C)C[C@](C)(N)C(=O)O; Ac6c = NC1(C(=O)O)CCCCC1; Abu = CC[C@H](N)C(=O)O; AEEA = NCCOCCOCC(=O)O; Aib = CC(C)(N)C(=O)O

How the values were obtained:
CFR1R receptor = biological target: T1, CFR1R receptor (Homo sapiens, UniProt P34998); assay: Activity at anti-target CFR1R receptor, cAMP assay in CRF1R-overexpression CHO-K1 cells; type: cell-based; conditions: 100% = Sauvagine at 100 nM; for EC50: cAMP
T1 construct: host or cells: CHO-K1 (clone 2)
T1 sequence (P34998 24-415): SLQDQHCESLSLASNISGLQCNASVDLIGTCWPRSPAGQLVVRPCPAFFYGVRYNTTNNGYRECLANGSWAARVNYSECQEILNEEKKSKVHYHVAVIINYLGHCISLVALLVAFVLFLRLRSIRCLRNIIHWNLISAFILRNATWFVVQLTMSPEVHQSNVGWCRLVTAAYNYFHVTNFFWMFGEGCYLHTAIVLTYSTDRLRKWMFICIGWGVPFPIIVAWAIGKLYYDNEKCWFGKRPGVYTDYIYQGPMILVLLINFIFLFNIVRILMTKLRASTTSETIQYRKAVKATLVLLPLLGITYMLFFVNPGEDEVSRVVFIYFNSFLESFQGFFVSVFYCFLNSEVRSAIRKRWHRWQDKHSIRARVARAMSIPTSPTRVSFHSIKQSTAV
In short: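 Run as for the TeloHAEC line, except the full-activation control well received Sauvagine (100 nM) and final density was 4000 cells/well. Cells from clone 2 came from frozen aliquots of near-confluent cultures.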

human CRF2a receptor = biological target: T2, human CRF2a receptor (Homo sapiens, UniProt Q13324); assay: Activity at human CRF2a receptor, cAMP functional assay in TeloHEAC cells; type: cell-based; conditions: TeloHEAC cells stably expressing human CRF2a receptor, relative to urocortin 2 (100 nM = 100%)
T2 construct: expressed in transfected cells; host or cells: TeloHEAC cells
T2 sequence (Q13324 1-411): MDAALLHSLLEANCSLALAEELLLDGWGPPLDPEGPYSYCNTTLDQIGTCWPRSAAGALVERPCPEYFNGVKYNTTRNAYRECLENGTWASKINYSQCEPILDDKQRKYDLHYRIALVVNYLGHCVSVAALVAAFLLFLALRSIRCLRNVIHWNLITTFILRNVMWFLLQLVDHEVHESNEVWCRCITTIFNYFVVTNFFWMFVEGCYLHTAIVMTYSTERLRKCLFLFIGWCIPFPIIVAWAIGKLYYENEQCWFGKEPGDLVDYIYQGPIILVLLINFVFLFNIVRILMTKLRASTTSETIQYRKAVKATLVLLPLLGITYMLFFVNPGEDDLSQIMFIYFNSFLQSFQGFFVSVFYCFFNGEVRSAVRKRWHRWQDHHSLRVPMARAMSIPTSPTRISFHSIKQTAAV
In short: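 TeloHEAC cells stably expressing human CRF2a (10000 cells/well) were treated with 16-point 1:2 compound dilutions in HBSS/20 mM HEPES with IBMX for 30 min at 37° C. cAMP was read by HTRF (665/620 nm ratio). EC50 was the concentration giving 50% activation, with 100 nM urocortin 2 set as 100%.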

Row | Structure (SMILES) | Emax (% I) (CFR1R receptor) | EC50 (CFR1R receptor) | EC50 (human CRF2a receptor)
1 | CC[C@H](C)[C@H](NC(C)=O)C(=O)N[C@H](C(=O)N[C@@H](CC(C)C)C(=O)N[C@@H](CO)C(=O)N[C@@H](CC(C)C)C(=O)N[C@@H](CC(=O)O)C(=O)N[C@@H](C(=O)N1CCC[C@H]1C(=O)N[C@H](C(=O)N[C@@H](CCCCN)C(=O)N[C@@H](CC(C)C)C(=O)N[C@@H](CCCCNC(=O)CC[C@H](NC(=O)CC[C@H](NC(=O)CCCCCCCCCCCCCCCCCCC(=O)O)C(=O)O)C(=O)O)C(=O)N[C@@H](CCCCN)C(=O)N[C@H](C(=O)N[C@@H](CC(C)C)C(=O)N[C@@H](CC(C)C)C(=O)N[C@@H](CCC(=O)O)C(=O)N[C@@H](CCC(N)=O)C(=O)N[C@@H](CCC(=O)O)C(=O)N[C@@H](CCCCN)C(=O)N[C@@H](CCC(N)=O)C(=O)N[C@@H](CCCCN)C(=O)N[C@@H](C)C(=O)N[C@@H](CCC(N)=O)C(=O)N[C@@H](CCCNC(=N)N)C(=O)N[C@@H](CCC(=O)O)C(=O)N[C@@H](CCC(N)=O)C(=O)N[C@@H](C)C(=O)N[C@@H](CCC(=O)O)C(=O)N[C@H](C(=O)N[C@@H](CC(N)=O)C(=O)NC(C)(C)C(=O)N[C@@H](CCC(N)=O)C(=O)N[C@H](C(=O)N[C@@H](CC(C)C)C(=O)N[C@@H](C)C(=O)N[C@@H](CCC(N)=O)C(=O)N[C@H](C(N)=O)C(C)C)[C@@H](C)CC)[C@@H](C)O)[C@@H](C)CC)[C@@H](C)CC)C(C)C)C(C)C [compound 244] (Ac-IVLSLD[dV]PIKLK([γGlu-γGlu-C20 diacid])KILLEQEKQKAQREQAETN[Aib]QILAQV-NH2) | 8 % I | > 250 nM | 0.28 nM
2 | CC[C@H](C)[C@H](NC(C)=O)C(=O)N[C@H](C(=O)N[C@@H](CC(C)C)C(=O)N[C@@H](CO)C(=O)N[C@@H](CC(C)C)C(=O)N[C@@H](CC(=O)O)C(=O)N[C@@H](C(=O)N1CCC[C@H]1C(=O)N[C@H](C(=O)N[C@@H](CCCCN)C(=O)N[C@@H](CC(C)C)C(=O)N[C@@H](CCCCNC(=O)CC[C@H](NC(=O)CCCCCCCCCCCCCCC(=O)O)C(=O)O)C(=O)N[C@@H](CCCCN)C(=O)N[C@H](C(=O)N[C@@H](CC(C)C)C(=O)N[C@@H](CC(C)C)C(=O)N[C@@H](CCC(=O)O)C(=O)N[C@@H](CCC(N)=O)C(=O)N[C@@H](CCC(=O)O)C(=O)N[C@@H](CCCCN)C(=O)N[C@@H](CCC(N)=O)C(=O)N[C@@H](CCCCN)C(=O)N[C@@H](CCCCN)C(=O)N[C@@H](CCC(N)=O)C(=O)N[C@@H](CCCNC(=N)N)C(=O)N[C@@H](CCC(=O)O)C(=O)N[C@@H](CCC(N)=O)C(=O)N[C@@H](C)C(=O)N[C@@H](CCC(=O)O)C(=O)N[C@H](C(=O)N[C@@H](CC(N)=O)C(=O)NC1(C(=O)N[C@@H](CCC(N)=O)C(=O)N[C@H](C(=O)N[C@@H](CC(C)C)C(=O)N[C@@H](C)C(=O)N[C@@H](CCC(N)=O)C(=O)N[C@H](C(N)=O)C(C)C)[C@@H](C)CC)CCCCC1)[C@@H](C)O)[C@@H](C)CC)[C@@H](C)CC)C(C)C)C(C)C [compound 59] (Ac-IVLSLD[dV]PIKLK([γGlu-C16 diacid])KILLEQEKQKKQREQAETN[Ac6c]QILAQV-NH2) | 9 % I | > 250 nM | 0.81 nM
3 | CC[C@H](C)[C@H](NC)C(=O)N[C@H](C(=O)N[C@@H](CC(C)C)C(=O)N[C@@H](CO)C(=O)N[C@@H](CC(C)C)C(=O)N[C@@H](CC(=O)O)C(=O)N[C@@H](C(=O)N1CCC[C@H]1C(=O)N[C@H](C(=O)N[C@@H](CCCCN)C(=O)N[C@@](C)(CC(C)C)C(=O)N[C@@H](CCCCNC(=O)COCCOCCNC(=O)COCCOCCNC(=O)CC[C@H](NC(=O)CCCCCCCCCCCCCCCCC(=O)O)C(=O)O)C(=O)N[C@@H](CCCCN)C(=O)N[C@H](C(=O)N[C@@H](CC(C)C)C(=O)N[C@@H](CC(C)C)C(=O)N[C@@H](CCC(=O)O)C(=O)N[C@@H](CCC(N)=O)C(=O)N[C@@H](CCC(=O)O)C(=O)N[C@@H](CCCCN)C(=O)N[C@@H](CCC(N)=O)C(=O)N[C@@H](CCCCN)C(=O)N[C@@H](CCCCN)C(=O)N[C@@H](CCC(N)=O)C(=O)N[C@@H](CCCNC(=N)N)C(=O)N[C@@H](CCC(=O)O)C(=O)N[C@@H](CCC(N)=O)C(=O)N[C@@H](C)C(=O)N[C@@H](CCC(=O)O)C(=O)N[C@H](C(=O)N[C@@H](CC(N)=O)C(=O)NC(C)(C)C(=O)N[C@@H](CCC(N)=O)C(=O)N[C@H](C(=O)N[C@@H](CC(C)C)C(=O)N[C@@H](C)C(=O)N[C@@H](CCC(N)=O)C(=O)N[C@H](C(N)=O)C(C)C)[C@@H](C)CC)[C@@H](C)O)[C@@H](C)CC)[C@@H](C)CC)C(C)C)C(C)C [compound 119] (H-[NMeI]VLSLD[dV]PIK[αMeL]K([AEEA-AEEA-γGlu-C18 diacid])KILLEQEKQKKQREQAETN[Aib]QILAQV-NH2) | 5 % I | > 250 nM | 1.62 nM
4 | CC[C@H](C)[C@H](NC(C)=O)C(=O)N[C@H](C(=O)N[C@@H](CC(C)C)C(=O)N[C@@H](CO)C(=O)N[C@@H](CC(C)C)C(=O)N[C@@H](CC(=O)O)C(=O)N[C@H](C(=O)N1CCC[C@H]1C(=O)N[C@H](C(=O)N[C@@H](CCCCN)C(=O)N[C@@](C)(CC(C)C)C(=O)N[C@@H](CCCCNC(=O)CC[C@H](NC(=O)CCCCCCCCCCCCCCC(=O)O)C(=O)O)C(=O)N[C@@H](CCC(N)=O)C(=O)NC(C)(C)C(=O)N[C@@H](CC(C)C)C(=O)N[C@@H](CC(C)C)C(=O)N[C@@H](CCCCN)C(=O)N[C@@H](CCC(N)=O)C(=O)N[C@@H](CCC(=O)O)C(=O)N[C@@H](CCCNC(=N)N)C(=O)N[C@@H](CCC(N)=O)C(=O)N[C@@H](CCCCN)C(=O)N[C@@H](CCCCN)C(=O)N[C@@H](CCC(N)=O)C(=O)N[C@@H](CCCNC(=N)N)C(=O)N[C@@H](CCC(=O)O)C(=O)N[C@@H](CCC(N)=O)C(=O)N[C@@H](C)C(=O)N[C@@H](CCC(=O)O)C(=O)N[C@@H](CCCCN)C(=O)N[C@@H](CC(N)=O)C(=O)NC(C)(C)C(=O)N[C@@H](CCC(N)=O)C(=O)N[C@H](C(=O)N[C@@H](CC(C)C)C(=O)N[C@@H](CCC(=O)O)C(=O)N[C@@H](CCC(N)=O)C(=O)N[C@H](C(N)=O)C(C)C)[C@@H](C)CC)[C@@H](C)CC)C(C)C)C(C)C [compound 20] (Ac-IVLSLDVPIK[αMeL]K([γGlu-C16 diacid])Q[Aib]LLKQERQKKQREQAEKN[Aib]QILEQV-NH2) | 3 % I | > 250 nM | 1.09 nM
5 | CC[C@H](NC(=O)[C@H](CC(N)=O)NC(=O)[C@@H](NC(=O)[C@H](CCC(=O)O)NC(=O)[C@H](C)NC(=O)[C@H](CCC(N)=O)NC(=O)[C@H](CCC(=O)O)NC(=O)[C@H](CCCNC(=N)N)NC(=O)[C@H](CCC(N)=O)NC(=O)[C@H](CCCCN)NC(=O)[C@H](CCCCN)NC(=O)[C@H](CCC(N)=O)NC(=O)[C@H](CCCCN)NC(=O)[C@H](CCC(=O)O)NC(=O)[C@H](CCC(N)=O)NC(=O)[C@H](CCC(=O)O)NC(=O)[C@H](CC(C)C)NC(=O)[C@H](CC(C)C)NC(=O)[C@@H](NC(=O)[C@H](CCCCN)NC(=O)[C@H](CCCCNC(=O)CC[C@H](NC(=O)CCCCCCCCCCCCCCCCC(=O)O)C(=O)O)NC(=O)[C@H](CC(C)C)NC(=O)[C@H](CCCCN)NC(=O)[C@@H](NC(=O)[C@@H]1CCCN1C(=O)[C@H](NC(=O)[C@H](CC(=O)O)NC(=O)[C@H](CC(C)C)NC(=O)[C@H](CO)NC(=O)[C@H](CC(C)C)NC(=O)[C@@H](NC(=O)[C@@H](NC(C)=O)[C@@H](C)CC)C(C)C)C(C)C)[C@@H](C)CC)[C@@H](C)CC)[C@@H](C)O)C(=O)N[C@@H](CCC(N)=O)C(=O)N[C@H](C(=O)N[C@@H](CC(C)C)C(=O)N[C@@H](C)C(=O)N[C@@H](CCC(N)=O)C(=O)N[C@H](C(N)=O)C(C)C)[C@@H](C)CC [compound 127] (Ac-IVLSLD[dV]PIKLK([γGlu-C18 diacid])KILLEQEKQKKQREQAETN[Abu]QILAQV-NH2) | 11 % I | > 250 nM | 0.08 nM
